Data: patent US8481530B2, “3β-hydroxysteroid dehydrogenase inhibitors” (The Research Foundation of State University of New York, priority 2007, dated 2013)

Each molecule was assayed against M. tuberculosis 3β-hydroxysteroid dehydrogenase (Mycobacterium tuberculosis, UniProt P9WQP7) (assay: 3β-hydroxysteroid dehydrogenase in vitro inhibitory activity assay). Settings: not given.
Sequence of M. tuberculosis 3β-hydroxysteroid dehydrogenase (P9WQP7 whole entry, looked up): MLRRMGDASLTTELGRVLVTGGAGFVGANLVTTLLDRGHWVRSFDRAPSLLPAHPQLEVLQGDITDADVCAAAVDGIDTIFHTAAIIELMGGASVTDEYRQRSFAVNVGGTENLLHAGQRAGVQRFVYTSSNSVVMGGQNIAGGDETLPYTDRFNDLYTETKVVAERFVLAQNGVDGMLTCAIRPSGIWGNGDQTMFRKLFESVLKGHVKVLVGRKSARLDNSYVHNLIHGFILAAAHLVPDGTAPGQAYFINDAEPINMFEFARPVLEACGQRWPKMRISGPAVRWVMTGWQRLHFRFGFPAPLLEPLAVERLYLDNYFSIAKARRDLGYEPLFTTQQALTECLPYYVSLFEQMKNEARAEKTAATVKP
Assay type: biochemical
`CC(C)(C)c1ccc(C(F)(F)F)cc1NC(=O)[C@H]1CCC2C3CNC4=CC(=O)CC[C@]4(C)C3CC[C@@]21C` (stereo partly shown) showed an IC50 of 1 to 50 µM. For `CC(C)(C)c1ccc(C(C)(C)C)c(NC(=O)[C@H]2CCC3C4CNC5=CC(=O)CC[C@]5(C)C4CC[C@@]32C)c1` (stereo partly shown), the IC50 was 1 to 50 µM. Work on `C[C@]12CCC(=O)C=C1NCC1C2CC[C@@]2(C)C1CC[C@@H]2C(=O)Nc1ccc(N2CCOCC2)cc1` (stereo partly shown) yielded an IC50 of over 50 µM. `CC(C)CCCC(C)[C@H]1CCC2C3CNC4=CC(=O)CC[C@]4(C)C3CC[C@@]21C` (stereo partly shown) was tested, and the IC50 was under 1 µM.

Same assay, conditions: purified enzyme, 150 μM dehydroepiandrosterone, 3.5 mM NAD+, pH 8.5, NADH at 340 nm; read-out: IC50 M. tuberculosis 3β-hydroxysteroid dehydrogenase
Molecule `C[C@]12CCC(=O)C=C1NCC1C2CC[C@@]2(C)C1CC[C@@H]2C(=O)O` (stereo partly shown) has an IC50 of over 50 µM. `C[C@]12CCC(=O)C=C1NCC1C2CC[C@@]2(C)C1CC[C@@H]2C(=O)Nc1ccccc1C(=O)c1ccccc1` (stereo partly shown) gave an IC50 of 1 to 50 µM. Work on `CC(C)CCCC(C)[C@H]1CCC2C3C(CC[C@@]21C)[C@@]1(C)CCC(=O)C=C1N[C@H]3C` (stereo partly shown) yielded an IC50 of 1 to 50 µM.
